Reference: patent publication US20110046224A1, “METHODS TO ACCELERATE MUSCLE DEVELOPMENT, DECREASE FAT DEPOSITS, AND ENHANCE FEEDING EFFICIENCY IN PIGS” (BIOKAB, S.A. de C.V., priority 2009, published 2011)

What was measured:
pigs for meat supply [1] = assay: Production characteristics of finishing pigs fed supplemented food (weight, weight gain, food intake, food conversion); assay type: in vivo, York-Landrace (YL) x Duroc (DC); settings: for FINAL WEIGHT / DAILY GAIN / WEIGHT GAIN / AVERAGE INTAKE / TOTAL INTAKE: mean and standard deviation; for AVERAGE INTAKE: daily average food intake; for CONVERSION: food conversion; for TOTAL INTAKE: food intake
Text: (§1) 30 pigs were used, 15 castrated males and 15 females obtained from a terminal breeding York-Landrace (YL)×Duroc (DC); at the beginning of the study, said pigs weighted 77.83±1.20 Kg and were approximately 18 weeks old. Pigs were kept in individual pens, and were randomly distributed to 3 treatments, with ten repetitions per treatment. Treatments were: a positive control, including 5 ppm of commercial ractopamine; a second treatment including 12 ppm of pure ferulic acid and a third treatment containing 15 ppm of substantially pure ferulic acid per ton of food. Pigs were weighted every seven days, studying the following variables: initial weight, weekly weight, and final weight of the pigs; daily food intake. This was used to estimate the daily, weekly and term weight gain, as well as food efficiency. When reaching the approximate weight of 100 kg, animals were evaluated in vivo (using Piglot 105, SFK-Technology, Netherlands) in order to estimate the amount of body fat and lean efficiency. Results were evaluated randomly, using SAS general linear models procedures.

pigs for meat supply [2] = assay: Carcass quality of pigs fed supplemented food (body fat and lean efficiency estimated in vivo with Piglot 105); set-up: species or system York-Landrace (YL) x Duroc (DC); settings: for Average fat / LEAN EFFICIENCY: at approx. 100 kg, mean and standard deviation
Text: as §1

pigs for meat supply [3] = assay: Production characteristics of finishing pigs fed supplemented food (weight, weight gain, food intake, food conversion); assay type: in vivo, York-Landrace (YL) x Duroc (DC); settings: supplemented pigs vs untreated control group

With `CC(CCc1ccc(O)cc1)NCC(O)c1ccc(O)cc1` (stereo not shown) [Ractopamine, ractopamine, reference compound] the “FINAL WEIGHT” value (pigs for meat supply [1]; 5 ppm commercial ractopamine in food, start 77.33 Kg) was 105.28 ± 4.98 kg, the “DAILY GAIN” value (pigs for meat supply [1]; 5 ppm in food) was 1.00 ± .08 kg and the “WEIGHT GAIN” value (pigs for meat supply [1]; 5 ppm in food) was 27.94 ± 3.20 kg. The “AVERAGE INTAKE” value (pigs for meat supply [1]; 5 ppm in food) was 2.35 ± .33 kg, the CONVERSION (pigs for meat supply [1]; 5 ppm in food) was 2.32 and the “TOTAL INTAKE” value (pigs for meat supply [1]; 5 ppm in food) was 82.33 ± 11.31 kg. For the same molecule, the “CARCASS EFFICIENCY” value (pigs for meat supply [2]; 5 ppm in food) was 87.08%, the “EFFICIENCY IN CUTS” value (pigs for meat supply [2]; 5 ppm in food) was 51.69% and the Average fat (pigs for meat supply [2]; 5 ppm in food) was 9.67 ± 1.11 mm. The “LEAN EFFICIENCY” value (pigs for meat supply [2]; 5 ppm in food) was 58.98 ± 2.20% and the “intake of total food and daily average compared to the control group (untreated)” value (pigs for meat supply [3]) was “lower intake”.
`COc1cc(/C=C/C(=O)O)ccc1O` [Substantially pure ferulic acid, trans-ferulic acid] was tested, and the “DAILY GAIN” value (pigs for meat supply [1]; 15 ppm in food) was 1.04 ± .20 kg, the “WEIGHT GAIN” value (pigs for meat supply [1]; 15 ppm in food) was 29.25 ± 5.70 kg and the “FINAL WEIGHT” value (pigs for meat supply [1]; 15 ppm substantially pure ferulic acid in food, start 78.2 Kg) was 107.47 ± 6.84 kg. The “AVERAGE INTAKE” value (pigs for meat supply [1]; 15 ppm in food) was 2.30 ± .26 kg, the CONVERSION (pigs for meat supply [1]; 15 ppm in food) was 2.21 and the “TOTAL INTAKE” value (pigs for meat supply [1]; 15 ppm in food) was 80.57 ± 8.13 kg. The “CARCASS EFFICIENCY” value (pigs for meat supply [2]; 15 ppm in food) was 89.26%, the “EFFICIENCY IN CUTS” value (pigs for meat supply [2]; 15 ppm in food) was 50.88% and the Average fat (pigs for meat supply [2]; 15 ppm in food) was 9.60 ± .34 mm. For the same molecule, the “LEAN EFFICIENCY” value (pigs for meat supply [2]; 15 ppm in food) was 59.66 ± 3.14%.
For `COc1cc(/C=C/C(=O)O)ccc1O` [Pure ferulic acid, trans-4-hydroxy-3-methoxy cinnamic acid], the “DAILY GAIN” value (pigs for meat supply [1]; 12 ppm in food) was 0.873 ± .20 kg, the “WEIGHT GAIN” value (pigs for meat supply [1]; 12 ppm in food) was 24.45 ± 5.64 kg and the “FINAL WEIGHT” value (pigs for meat supply [1]; 12 ppm pure ferulic acid in food, start 79.4 Kg) was 103.85 ± 7.63 kg. The “AVERAGE INTAKE” value (pigs for meat supply [1]; 12 ppm in food) was 2.34 ± .40 kg, the CONVERSION (pigs for meat supply [1]; 12 ppm in food) was 2.68 and the “TOTAL INTAKE” value (pigs for meat supply [1]; 12 ppm in food) was 81.75 ± 14.00 kg. The “CARCASS EFFICIENCY” value (pigs for meat supply [2]; 12 ppm in food) was 88.01%, the “EFFICIENCY IN CUTS” value (pigs for meat supply [2]; 12 ppm in food) was 49.66% and the Average fat (pigs for meat supply [2]; 12 ppm in food) was 13.5 ± 3.58 mm. For the same molecule, the “LEAN EFFICIENCY” value (pigs for meat supply [2]; 12 ppm in food) was 56.24 ± 3.58%.
With `COc1cc(/C=C/C(=O)O)ccc1O` [ferulic acid] the “amount of dorsal fat (in words)” value (pigs for meat supply [2]; pigs fed with 15 ppm) was “lower amount of dorsal fat”, the “lean efficiency (in words)” value (pigs for meat supply [2]; pigs fed with 15 ppm) was “better lean efficiency” and the “intake of total food and daily average compared to the control group (untreated)” value (pigs for meat supply [3]) was “lower intake”.
